In patent US10836763B2, “5 to 7 membered heterocyclic amides as JAK inhibitors” (priority 2018, dated 2020):
Read-outs that look alike come from different tables or passages of the source.

Legend:
[1] = Lung S9 metabolism; format: in vitro ADME, human; settings: for Compound Remaining at 60 min (%) / microsomal CLint at 1 µM: human lung S9, 1 μM compound, 1 mg/mL S9 protein, NADPH and PAPS; for microsomal CLint at 1 µM: lung S9 fraction, pH 7.4, read-out: Clearance; for Sulfate Appearance: qualitative, O-sulfate metabolite peak in human lung S9
Protocol: Assay 5: Lung S9 Metabolism […] Lung S9 fractions from human (lot 1410245) were purchased from XenoTech LLC (Lenexa, Kans.). NADPH (Sigma Aldrich, N1630) and 3-phosphoadenosine 5-phosphosulfate (PAPS) (Sigma Aldrich, A1651) were purchased from Sigma Aldrich (St. Louis, Mo.). Acetonitrile and water were obtained from VWR (Radnor, Pa.) and were of HPLC grade or better. Raloxifene and formic acid was purchased from Sigma Aldrich (St. Louis, Mo.). Lung S9 incubations were performed in a water bath at 37° C. in a 96-well polypropylene plate. […] All samples were centrifuged at 2250 g for 10 minutes at 5° C. Supernatant (50 μL) was taken from the centrifuged samples and diluted into 100 μL HPLC water containing internal standard. […] Mobile Phase A consisted of Water+0.2% formic acid and Mobile Phase B consisted of acetonitrile+0.2% formic acid. Peak integration was accomplished using Gubbs GMSU software (Gubbs Inc., Alpharetta, Ga.). For each sample, peak area ratios were calculated by dividing the analyte peak area by the internal standard peak area. […] Determination of sulfate metabolite formation was made qualitatively by observation of early-eluting peak in the parent ion channel which, based on historical internal data, corresponded to the O-sulfate metabolite of each parent compound.

[2] = biological target: JAK3 (Homo sapiens (Human), UniProt P52333); format: biochemical
Sequence of JAK3 (P52333 whole entry): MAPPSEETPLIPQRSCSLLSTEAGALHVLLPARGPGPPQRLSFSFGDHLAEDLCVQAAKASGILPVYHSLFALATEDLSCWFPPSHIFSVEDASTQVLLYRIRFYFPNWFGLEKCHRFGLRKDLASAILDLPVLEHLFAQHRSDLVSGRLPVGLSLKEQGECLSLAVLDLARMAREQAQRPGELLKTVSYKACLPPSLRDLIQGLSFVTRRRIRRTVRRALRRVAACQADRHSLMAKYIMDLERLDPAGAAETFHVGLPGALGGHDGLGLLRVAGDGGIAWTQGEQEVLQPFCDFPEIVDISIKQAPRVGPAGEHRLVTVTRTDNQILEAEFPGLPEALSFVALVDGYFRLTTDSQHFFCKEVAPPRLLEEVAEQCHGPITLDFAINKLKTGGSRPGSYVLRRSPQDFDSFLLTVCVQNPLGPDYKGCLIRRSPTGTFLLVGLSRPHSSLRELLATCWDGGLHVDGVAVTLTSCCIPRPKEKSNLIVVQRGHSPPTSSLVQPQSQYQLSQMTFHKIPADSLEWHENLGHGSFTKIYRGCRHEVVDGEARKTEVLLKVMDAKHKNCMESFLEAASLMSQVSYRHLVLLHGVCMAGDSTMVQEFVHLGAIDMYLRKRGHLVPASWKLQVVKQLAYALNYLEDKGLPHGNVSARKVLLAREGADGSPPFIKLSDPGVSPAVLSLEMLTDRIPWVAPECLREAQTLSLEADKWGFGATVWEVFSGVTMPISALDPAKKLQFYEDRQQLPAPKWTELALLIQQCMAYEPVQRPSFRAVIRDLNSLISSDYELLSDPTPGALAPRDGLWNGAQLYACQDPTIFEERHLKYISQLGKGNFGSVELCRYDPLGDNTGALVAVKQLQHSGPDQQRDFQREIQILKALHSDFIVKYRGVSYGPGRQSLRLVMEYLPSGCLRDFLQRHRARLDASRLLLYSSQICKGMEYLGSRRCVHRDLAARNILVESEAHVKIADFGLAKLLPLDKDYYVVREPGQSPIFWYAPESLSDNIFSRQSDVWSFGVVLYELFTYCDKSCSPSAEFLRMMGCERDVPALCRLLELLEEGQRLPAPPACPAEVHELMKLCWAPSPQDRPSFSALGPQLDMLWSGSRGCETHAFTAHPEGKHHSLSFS
Protocol: (§1) Assay 1: Biochemical JAK Kinase Assays
(§2) A panel of four LanthaScreen JAK biochemical assays (JAK1, 2, 3 and Tyk2) were carried in a common kinase reaction buffer (50 mM HEPES, pH 7.5, 0.01% Brij-35, 10 mM MgCl2, and 1 mM EGTA). Recombinant GST-tagged JAK enzymes and a GFP-tagged STAT1 peptide substrate were obtained from Life Technologies.
(§3) Serially diluted compounds were pre-incubated with each of the four JAK enzymes and the substrate in white 384-well microplates (Corning) at ambient temperature for 1 h. ATP was subsequently added to initiate the kinase reactions in 10 μL total volume, with 1% DMSO. […] Kinase reactions were allowed to proceed for 1 hour at ambient temperature before a 10 μL preparation of EDTA (10 mM final concentration) and Tb-anti-pSTAT1 (pTyr701) antibody (Life Technologies, 2 nM final concentration) in TR-FRET dilution buffer (Life Technologies) was added. The plates were allowed to incubate at ambient temperature for 1 h before being read on the EnVision reader (Perkin Elmer). Emission ratio signals (520 nm/495 nm) were recorded and utilized to calculate the percent inhibition values based on DMSO and background controls.
(§4) For dose-response analysis, percent inhibition data were plotted vs. compound concentrations, and IC50 values were determined from a 4-parameter robust fit model with the Prism software (GraphPad Software). Results were expressed as pIC50 (negative logarithm of IC50) and subsequently converted to pKi (negative logarithm of dissociation constant, Ki) using the Cheng-Prusoff equation.

[3] = biological target: JAK2 (Homo sapiens (Human), UniProt O60674); test: Biochemical JAK kinase assay (LanthaScreen), JAK2
Sequence of JAK2 (O60674 whole entry): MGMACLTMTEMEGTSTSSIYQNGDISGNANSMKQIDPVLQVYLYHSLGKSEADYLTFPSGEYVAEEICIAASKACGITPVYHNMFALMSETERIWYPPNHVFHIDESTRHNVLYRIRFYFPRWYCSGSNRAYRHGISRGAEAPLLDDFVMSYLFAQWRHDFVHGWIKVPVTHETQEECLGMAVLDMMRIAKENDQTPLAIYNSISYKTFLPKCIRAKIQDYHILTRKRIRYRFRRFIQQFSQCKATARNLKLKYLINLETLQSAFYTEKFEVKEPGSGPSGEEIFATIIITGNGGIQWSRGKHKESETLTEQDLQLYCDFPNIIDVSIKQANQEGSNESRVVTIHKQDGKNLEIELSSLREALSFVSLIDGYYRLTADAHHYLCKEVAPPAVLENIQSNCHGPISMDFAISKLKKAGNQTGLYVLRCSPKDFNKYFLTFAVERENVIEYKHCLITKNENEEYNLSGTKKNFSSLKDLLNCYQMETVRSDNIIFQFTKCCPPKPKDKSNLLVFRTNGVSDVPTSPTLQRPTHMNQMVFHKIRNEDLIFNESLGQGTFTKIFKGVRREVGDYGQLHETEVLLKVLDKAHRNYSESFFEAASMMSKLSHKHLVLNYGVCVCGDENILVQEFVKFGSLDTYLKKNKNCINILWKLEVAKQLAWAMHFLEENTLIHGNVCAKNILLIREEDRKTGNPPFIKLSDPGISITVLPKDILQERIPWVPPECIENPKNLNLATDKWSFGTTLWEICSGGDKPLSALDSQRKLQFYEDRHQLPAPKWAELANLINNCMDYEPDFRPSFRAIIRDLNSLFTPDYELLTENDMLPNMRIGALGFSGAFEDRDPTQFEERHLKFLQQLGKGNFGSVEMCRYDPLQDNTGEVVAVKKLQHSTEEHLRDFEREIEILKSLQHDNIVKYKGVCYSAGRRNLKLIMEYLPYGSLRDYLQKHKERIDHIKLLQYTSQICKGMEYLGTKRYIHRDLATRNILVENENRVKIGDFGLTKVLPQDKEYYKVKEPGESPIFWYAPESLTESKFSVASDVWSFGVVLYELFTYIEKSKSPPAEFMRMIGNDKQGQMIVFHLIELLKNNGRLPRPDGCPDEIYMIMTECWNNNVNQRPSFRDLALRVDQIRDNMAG
Protocol: as §1, §2, §3, §4

[4] = biological target: Tyk2 (Homo sapiens (Human), UniProt P29597); test: Biochemical JAK kinase assay (LanthaScreen), Tyk2
Sequence of Tyk2 (P29597 whole entry): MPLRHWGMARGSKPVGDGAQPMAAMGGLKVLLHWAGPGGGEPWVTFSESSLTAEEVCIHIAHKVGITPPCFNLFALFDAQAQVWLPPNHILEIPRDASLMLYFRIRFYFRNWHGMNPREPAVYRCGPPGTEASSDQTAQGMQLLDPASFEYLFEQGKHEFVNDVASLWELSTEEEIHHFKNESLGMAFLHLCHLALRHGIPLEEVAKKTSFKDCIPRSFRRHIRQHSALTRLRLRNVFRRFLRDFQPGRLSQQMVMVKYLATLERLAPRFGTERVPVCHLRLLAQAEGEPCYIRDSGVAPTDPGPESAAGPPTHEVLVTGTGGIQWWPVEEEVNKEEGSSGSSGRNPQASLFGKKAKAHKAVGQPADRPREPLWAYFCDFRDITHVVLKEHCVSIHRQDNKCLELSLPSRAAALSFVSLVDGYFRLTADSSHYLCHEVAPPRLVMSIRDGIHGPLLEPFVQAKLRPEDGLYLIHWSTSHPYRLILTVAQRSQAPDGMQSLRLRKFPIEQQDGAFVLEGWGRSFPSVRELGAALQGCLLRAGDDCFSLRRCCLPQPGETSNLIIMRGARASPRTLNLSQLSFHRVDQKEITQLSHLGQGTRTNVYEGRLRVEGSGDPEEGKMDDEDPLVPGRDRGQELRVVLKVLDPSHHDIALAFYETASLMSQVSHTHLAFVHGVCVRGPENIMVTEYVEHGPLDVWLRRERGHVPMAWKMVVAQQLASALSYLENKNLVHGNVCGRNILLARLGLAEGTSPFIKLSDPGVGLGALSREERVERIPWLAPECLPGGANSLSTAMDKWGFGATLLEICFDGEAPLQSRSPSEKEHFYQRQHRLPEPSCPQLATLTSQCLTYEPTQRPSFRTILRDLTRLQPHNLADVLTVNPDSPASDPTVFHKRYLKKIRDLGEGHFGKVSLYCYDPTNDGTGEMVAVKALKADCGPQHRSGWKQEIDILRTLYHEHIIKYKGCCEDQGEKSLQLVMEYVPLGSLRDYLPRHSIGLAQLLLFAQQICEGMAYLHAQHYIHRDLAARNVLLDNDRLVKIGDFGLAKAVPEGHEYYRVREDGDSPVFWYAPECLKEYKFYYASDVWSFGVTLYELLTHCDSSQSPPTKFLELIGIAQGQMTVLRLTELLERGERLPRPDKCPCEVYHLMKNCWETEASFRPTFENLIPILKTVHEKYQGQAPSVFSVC
Protocol: as §1, §2, §3, §4

[5] = tested on: IL-2 stimulated STAT5 phosphorylation in Tall-1 human T cell line; test: Inhibition of IL-2 stimulated pSTAT5 in Tall-1 T cells; format: cell-based; settings: TALL-1, 0.5 h, read-out: Tall-1 pIC50 (converted)
Protocol: Assay 2: Inhibition of IL-2 Stimulated pSTAT5 in Tall-1 T Cells
The potency of test compounds for inhibition of interleukin-2 (IL-2) stimulated STAT5 phosphorylation was measured in the Tall-1 human T cell line (DSMZ) using AlphaLisa.
Phosphorylated STAT5 was measured via the AlphaLISA SureFire Ultra pSTAT5 (Tyr694/699) kit (PerkinElmer).
Compounds were serially diluted in DMSO and dispensed acoustically to empty wells. Assay media (phenol red-free DMEM (Life Technologies) supplemented with 10% FBS (ATCC)) was dispensed (4 μL/well) and plates shaken at 900 rpm for 10 mins. Cells were seeded at 45,000 cells/well in assay media (4 μL/well), and incubated at 37° C., 5% CO2 for 1 hour, followed by the addition of IL-2 (R&D Systems; final concentration 300 ng/mL) in pre-warmed assay media (4 μL) for 30 minutes. […] The lysate was shaken at 900 rpm for 10 minutes at room temperature (RT). Phosphorylated STAT5 was measured via the pSTAT5 AlphaLisa kit (PerkinElmer). Freshly prepared acceptor bead mixture was dispensed onto lysate (5 μL) under green filtered <100 lux light. Plates were shaken at 900 rpm for 2 mins, briefly spun down, and incubated for 2 hrs at RT in the dark. Donor beads were dispensed (5 μL) under green filtered <100 lux light. Plates were shaken at 900 rpm for 2 minutes, briefly spun down, and incubated overnight at RT in the dark. Luminescence was measured with excitation at 689 nm and emission at 570 nm using an EnVision plate reader (PerkinElmer) under green filtered <100 lux light.
To determine the inhibitory potency of test compounds in response to IL-2, the average emission intensity of beads bound to pSTAT5 was measured in a human T cell line. IC50 values were determined from analysis of the inhibition curves of signal intensity versus compound concentration. Data are expressed as pIC50 (negative decadic logarithm IC50) values (mean±standard deviation).

[6] = ATP at Km 1.6 μM, pIC50 converted with Cheng-Prusoff
[7] = ATP at Km 3 μM, pIC50 converted with Cheng-Prusoff
[8] = ATP at Km 10 μM, pIC50 converted with Cheng-Prusoff
[9] = IL-2 300 ng/mL, 30 min, pSTAT5 AlphaLisa

Row | SMILES | Compound Remaining at 60 min (%) [1] [%] | microsomal CLint at 1 µM [1] [µL/min/mg] | Sulfate Appearance [1] | JAK3 PKi [2, 6] | JAK2 pKi [3, 7] | Tyk2 pKi [4, 8] | IC50 [5, 9] [nM] | JAK3 PKi [2] | JAK2 pKi [3] | Tyk2 pKi [4] | IC50 [5] [nM]
1 | CCCN1Cc2[nH]c(-c3n[nH]c4cc(-c5ccc(O)cc5CC)ccc34)nc2C[C@H]1C(=O)N1C[C@@H]2C[C@H]1CN2C [Compound 2, ((S)-2-(6-(2-ethyl-4-hydroxyphenyl)-1H-indazol-3-yl)-5-propyl-4,5,6,7-tetrahydro-3H-imidazo[4,5-c]pyridin-6-yl)((1S,4S)-5-methyl-2,5-diazabicyclo[2.2.1]heptan-2-yl)methanone] | 81 | 3.5 | Yes | 9.8 | 10.2 | 8.9 | 3.98 |  |  |  | 
2 | CCCN1Cc2[nH]c(-c3n[nH]c4cc(-c5ccc(O)cc5CC)ccc34)nc2C[C@H]1C(=O)N1CCN(CCO)CC1 [Compound 1, (S)-(2-(6-(2-ethyl-4-hydroxyphenyl)-1H-indazol-3-yl)-5-propyl-4,5,6,7-tetrahydro-3H-imidazo[4,5-c]pyridin-6-yl)(4-(2-hydroxyethyl)piperazin-1-yl)methanone] | 78 | 4.2 | Yes | 9.8 | 10.3 | 9.0 | 1.58 |  |  |  | 
3 | CCc1cc(O)c(F)cc1-c1ccc2c(-c3nc4c([nH]3)CN(C)[C@H](C(=O)N3CCN(CCO)C[C@H]3C)C4)n[nH]c2c1 [Compound C-5, ((S)-2-(6-(2-ethyl-5-fluoro-4-hydroxyphenyl)-1H-indazol-3-yl)-5-methyl-4,5,6,7-tetrahydro-3H-imidazo[4,5-c]pyridin-6-yl)((R)-4-(2-hydroxyethyl)-2-methyl-piperazin-1-yl)methanone, reference compound] | 8 | 42.2 | Yes |  | 10.7 | 9.5 | 2.51 | 9.9 |  |  | 
4 | CCc1cc(O)ccc1-c1ccc2c(-c3nc4c([nH]3)CN(C(C)C)[C@H](C(=O)N3CC[C@H](N(C)C)C3)C4)n[nH]c2c1 [Compound 6, ((S)-3-(dimethylamino)pyrrolidin-1-yl)((S)-2-(6-(2-ethyl-4-hydroxyphenyl)-1H-indazol-3-yl)-5-isopropyl-4,5,6,7-tetrahydro-3H-imidazo[4,5-c]pyridin-6-yl)methanone] | 82 | 3.4 | Yes |  |  |  |  | 10.0 | 10.4 | 9.0 | 2
5 | CCCN1Cc2[nH]c(-c3n[nH]c4cc(-c5cc(F)c(O)cc5CC)ccc34)nc2C[C@H]1C(=O)N1CCN(CCO)CC1 [Compound C-1, (S)-(2-(6-(2-ethyl-5-fluoro-4-hydroxyphenyl)-1H-indazol-3-yl)-5-propyl-4,5,6,7-tetrahydro-3H-imidazo[4,5-c]pyridin-6-yl)(4-(2-hydroxyethyl)piperazin-1-yl)methanone, reference compound] | 29 | 20.8 | Yes |  | 10.5 | 9.1 | 2 | 9.7 |  |  | 
6 | CCc1cc(O)c(F)cc1-c1ccc2c(-c3nc4c([nH]3)CN(C(C)C)[C@H](C(=O)N3CCCN(C)CC3)C4)n[nH]c2c1 [Compound C-4, (S)-(2-(6-(2-ethyl-5-fluoro-4-hydroxyphenyl)-1H-indazol-3-yl)-5-isopropyl-4,5,6,7-tetrahydro-3H-imidazo[4,5-c]pyridin-6-yl)(4-methyl-1,4-diazepan-1-yl)methanone, reference compound] | 4 | 53.4 | Yes |  | 10.6 | 9.3 | 2 | 9.8 |  |  | 
7 | CCc1cc(O)c(F)cc1-c1ccc2c(-c3nc4c([nH]3)CN(C)[C@H](C(=O)N3CCN(C)C[C@@H]3C)C4)n[nH]c2c1 [Compound C-3, ((S)-2,4-dimethylpiperazin-1-yl)((S)-2-(6-(2-ethyl-5-fluoro-4-hydroxyphenyl)-1H-indazol-3-yl)-5-methyl-4,5,6,7-tetrahydro-3H-imidazo[4,5-c]pyridin-6-yl)methanone, reference compound] | 14 | 33.2 | Yes |  | 10.5 | 9.3 | 2 | 9.7 |  |  | 
8 | CCc1cc(O)ccc1-c1ccc2c(-c3nc4c([nH]3)CN(C)[C@H](C(=O)N3CCN(CCO)C[C@H]3C)C4)n[nH]c2c1 [Compound 5, ((S)-2-(6-(2-ethyl-4-hydroxyphenyl)-1H-indazol-3-yl)-5-methyl-4,5,6,7-tetrahydro-3H-imidazo[4,5-c]pyridin-6-yl)((R)-4-(2-hydroxyethyl)-2-methylpiperazin-1-yl)methanone] | 80 | 3.7 | Yes |  |  |  |  | 10.1 | 10.5 | 9.2 | 1.58
9 | CCc1cc(O)ccc1-c1ccc2c(-c3nc4c([nH]3)CN(C(C)C)[C@H](C(=O)N3CCCN(C)CC3)C4)n[nH]c2c1 [Compound 4, (S)-(2-(6-(2-ethyl-4-hydroxyphenyl)-1H-indazol-3-yl)-5-isopropyl-4,5,6,7-tetrahydro-3H-imidazo[4,5-c]pyridin-6-yl)(4-methyl-1,4-diazepan-1-yl)methanone] | 88 | 2.1 | Yes |  |  |  |  | 10.1 | 10.4 | 9.0 | 2.51
10 | CCCN1Cc2[nH]c(-c3n[nH]c4cc(-c5cc(F)c(O)cc5CC)ccc34)nc2C[C@H]1C(=O)N1C[C@@H]2C[C@H]1CN2C [Compound C-2, ((S)-2-(6-(2-ethyl-5-fluoro-4-hydroxyphenyl)-1H-indazol-3-yl)-5-propyl-4,5,6,7-tetrahydro-3H-imidazo[4,5-c]pyridin-6-yl)((1S,4S)-5-methyl-2,5-diazabicyclo-[2.2.1]heptan-2-yl)methanone, reference compound] | 3 | 61 | Yes |  | 10.8 | 9.5 | 2.51 | 9.9 |  |  | 
